Experimental findings from patent US20160052955A1 (SLOAN-KETTERING INSTITUTE FOR CANCER RESEARCH, priority 2013, published 2016) are described below.

pIC50: −log10 of the molar value.

For this test, the target named is SETDB1Full-length (Homo sapiens, UniProt Q15047). Kind of test: Filter-paper methyltransferase assay, SETDB1. Type of test: biochemical.

A word on the pIC50: it is the negative decadic logarithm of the IC50, by convention in mol/L. A low value points to a large IC50. On to `Nc1ncnc2c1ncn2[C@@H]1O[C@H](C[C@@H](N)CC[C@H](N)C(=O)O)[C@@H](O)[C@H]1O` [Sinefungin, sinefungin, reference compound], for which the pIC50 was 5.10.
